Experimental data as given in ChEMBL document CHEMBL5104180, “Design, Synthesis, and Evaluation of New Sugar-Substituted Imidazole Derivatives as Selective c-MYC Transcription Repressors Targeting the Promoter G-Quadruplex” (J Med Chem, 2022).
Active and inactive are the calls of the source. The rule behind the calls is not given here.

Legend:
[1] = Cytotoxicity against human HBL-100 cells assessed as reduction in cell viability measured after 48 hrs by MTT assay; type: toxicity, cell-based
[2] = Binding affinity to human G-rich Htg22 DNA assessed as binding constant by SPR analysis
[3] = Binding affinity to G-rich HRAS DNA (unknown origin) assessed as binding constant by SPR analysis
[4] = Binding affinity to G-rich NRAS RNA (unknown origin) assessed as binding constant by SPR analysis
[5] = test system: DHX36/c-MYC G4 quadruplex DNA; test: Disruption of DHX36/c-MYC G4 quadruplex DNA (unknown origin) interaction incubated for 1 hrs by ELISA; type: protein assay
[6] = test system: BLM/c-MYC G4 quadruplex DNA; test: Disruption of BLM/c-MYC G4 quadruplex DNA (unknown origin) interaction incubated for 1 hrs by ELISA; type: protein assay
[7] = test system: MDA-MB-231; test: Cytotoxicity against human MDA-MB-231 cells assessed as reduction in cell viability measured after 48 hrs by MTT assay; type: functional, cell-based; details: MDA-MB-231, 48 h
[8] = test system: NM23-H2/c-MYC G4 quadruplex DNA; test: Disruption of NM23-H2/c-MYC G4 quadruplex DNA (unknown origin) interaction incubated for 1 hrs by ELISA; type: protein assay
[9] = molecular target: Quadruplex DNA; test: Binding affinity to c-MYC G4- quadruplex DNA Pu22 (unknown origin) assessed as binding constant by SPR analysis; type: nucleic-acid assay
[10] = Binding affinity to Hairpin DNA (unknown origin) assessed as binding constant by SPR analysis
[11] = test system: Quadruplex DNA; test: Stabilization of c-MYC G4 quadruplex DNA Pu22 (unknown origin) assessed as change in melting temperature at 2 uM by CD spectroscopy; type: nucleic-acid assay
[12] = Binding affinity to G-rich KRAS DNA (unknown origin) assessed as binding constant by SPR analysis
[13] = molecular target: Quadruplex DNA; test: Binding affinity to c-MYC G4 quadruplex DNA Pu22 (unknown origin) assessed as binding constant by SPR analysis; type: nucleic-acid assay
[14] = test system: HepG2; test: Cytotoxicity against human HepG2 cells assessed as reduction in cell viability measured after 48 hrs by MTT assay; type: functional, cell-based; details: HepG2, 48 h
[15] = molecular target: RNA; test: Binding affinity to NRAS RNA mutant (unknown origin) assessed as binding constant by SPR analysis
[16] = test system: MDA-MB-231; test: Antitumor activity against human MDA-MB-231 cells xenografted in BALB/c-nu/nu mouse assessed as decrease in c-MYC expression in tumor tissue; type: functional, cell-based
[17] = test system: NM23-H2/c-MYC G4 quadruplex DNA (Homo sapiens); test: Disruption of NM23-H2/c-MYC G4 quadruplex DNA interaction in MDA-MB-231 cells; type: cell-based
[18] = molecular target: Quadruplex DNA; test: Binding affinity to 3' FAM-labeled c-MYC G4 quadruplex DNA Pu22 (unknown origin) by fluorescence quench assay; type: nucleic-acid assay
[19] = test system: MDA-MB-231; test: Induction of cell cycle arrest in human MDA-MB-231 cells assessed as accumulation at sub G0 phase at 5 uM after 24 hrs by propidium iodide staining based flow cytometric analysis; type: functional
[20] = test system: MDA-MB-231; test: Antitumor activity against human MDA-MB-231 cells assessed as reduction in cell invasion measured after 24 hrs using crystal violet staining inverted microscope based transwell assay; type: functional; details: MDA-MB-231, 24 h
[21] = test system: MDA-MB-231; test: Induction of apoptosis in human MDA-MB-231 cells assessed as necrosis at 5 uM measured after 24 hrs by AnnexinV/propidium iodide staining based flow cytometry; type: functional, cell-based
[22] = test system: MDA-MB-231; test: Inhibition of colony formation in human MDA-MB-231 cells at 5 uM assessed as reduction in colony formation incubated for 10 days and subsequent media replacement with compound for every 2 days by crystal violet staining based assay; type: functional; details: MDA-MB-231, 240 h, time 10 day
[23] = Toxicity in BALB/c-nu/nu mouse xenografted with human MDA-MB-231 cells assessed as side effects at 2.5 mg/kg, ip measured after 24 hrs; type: organism-based; details: in vivo
[24] = test system: MDA-MB-231; test: Induction of apoptosis in human MDA-MB-231 cells assessed as early apoptosis at 5 uM measured after 24 hrs by AnnexinV/propidium iodide staining based flow cytometry; type: functional, cell-based
[25] = test system: Quadruplex DNA; test: Inhibition of c-MYC G4 quadruplex DNA in HEK293T cells co-transfected with Renilla and firefly luciferase assessed as decrease in relative luciferase measured after 24 hrs by dual luciferase reporter assay; type: cell-based; details: Homo sapiens
[26] = test system: MDA-MB-231; test: Downregulation of c-MYC expression in human MDA-MB-231 cells measured after 48 hrs by western blot analysis; type: functional, cell-based
[27] = molecular target: Quadruplex DNA; test: Binding affinity to 5' FAM-labeled c-MYC G4 quadruplex DNA Pu22 (unknown origin) by fluorescence quench assay; type: nucleic-acid assay
[28] = test system: HBL-100; test: Cytotoxicity against human HBL-100 cells measured after 48 hrs; type: toxicity, cell-based; details: hbl-100, 48 h
[29] = test system: MDA-MB-231; test: Downregulation of c-MYC mRNA level in human MDA-MB-231 cells measured after 24 hrs by RT-PCR analysis; type: functional, cell-based
[30] = Toxicity in BALB/c-nu/nu mouse xenografted with human MDA-MB-231 cells assessed as effect on anatomized liver viscera at 2.5 mg/kg, ip measured after 24 hrs; type: organism-based; details: in vivo
[31] = test system: HepG2; test: Cytotoxicity against human HepG2 cells measured after 48 hrs; type: functional, cell-based
[32] = Toxicity in BALB/c-nu/nu mouse xenografted with human MDA-MB-231 cells assessed as effect on anatomized heart viscera at 2.5 mg/kg, ip measured after 24 hrs; type: organism-based; details: in vivo
[33] = Toxicity in BALB/c-nu/nu mouse xenografted with human MDA-MB-231 cells assessed as effect on anatomized spleen viscera at 2.5 mg/kg, ip measured after 24 hrs; type: organism-based; details: in vivo
[34] = test system: MCF7; test: Cytotoxicity against human MCF7 cells measured after 48 hrs; type: functional, cell-based
[35] = Toxicity in BALB/c-nu/nu mouse xenografted with human MDA-MB-231 cells assessed as effect on anatomized lung viscera at 2.5 mg/kg, ip measured after 24 hrs; type: organism-based; details: in vivo
[36] = test system: Quadruplex DNA; test: Inhibition of c-MYC G4 quadruplex DNA in HEK293T cells co-transfected with Renilla and firefly luciferase assessed as decrease in relative luciferase at 2.5 to 5 uM measured after 24 hrs by dual luciferase reporter assay; type: cell-based; details: Homo sapiens, dose 2.5-5 µM
[37] = test system: Quadruplex DNA; test: Inhibition of c-MYC G4 quadruplex DNA in human MDA-MB-231 cells assessed as decrease in c-MYC immunoprecipitation at 1.25 to 5 uM measured after 24 hrs by chromatin immunoprecipitation assay; type: cell-based; details: dose 1.25-5 µM
[38] = test system: NCM460; test: Cytotoxicity against human NCM460 cells measured after 48 hrs; type: toxicity, cell-based; details: ncm460, 48 h
[39] = test system: MDA-MB-231; test: Antitumor activity against human MDA-MB-231 cells xenografted in BALB/c-nu/nu mouse assessed as relative increment ratio at 2.5 mg/kg, ip measured for 24 days; type: functional; details: time 24 day
[40] = test system: MDA-MB-231; test: Inhibition of colony formation in human MDA-MB-231 cells at 0.125 to 5 uM assessed as reduction in colony formation incubated for 10 days and subsequent media replacement with compound for every 2 days by crystal violet staining based assay; type: functional, cell-based; details: dose 0.125-5 µM, time 10.0 day
[41] = Toxicity in BALB/c-nu/nu mouse xenografted with human MDA-MB-231 cells assessed as effect on anatomized kidney viscera at 2.5 mg/kg, ip measured after 24 hrs; type: organism-based; details: in vivo
[42] = test system: MDA-MB-231; test: Antitumor activity against human MDA-MB-231 cells xenografted in BALB/c-nu/nu mouse assessed as tumor growth inhibition at 2.5 mg/kg, ip measured for 24 days; type: functional; details: MDA-MB-231, 576 h, time 24 day, read-out: TGI
[43] = test system: SiHa; test: Cytotoxicity against human SiHa cells measured after 48 hrs; type: functional, cell-based
[44] = Toxicity in BALB/c-nu/nu mouse xenografted with human MDA-MB-231 cells assessed as change in body weight at 2.5 mg/kg, ip; type: organism-based; details: in vivo
[45] = test system: MDA-MB-231; test: Cytotoxicity against human MDA-MB-231 cells measured after 48 hrs; type: functional, cell-based
[46] = test system: MDA-MB-231; test: Induction of cell cycle arrest in human MDA-MB-231 cells assessed as decrease in accumulation at G2/M phase at 5 uM after 24 hrs by propidium iodide staining based flow cytometric analysis; type: functional
[47] = test system: MDA-MB-231; test: Cytotoxicity against human MDA-MB-231 cells assessed as reduction in cell viability measured after 24 hrs; type: functional, cell-based
[48] = test system: MDA-MB-231; test: Anticancer activity against human MDA-MB-231 cells (OFP negative) expressing c-MYC G4 quadruplex DNA assessed as arrest of growth measured after 48 hrs by DAPI staining based orange fluorescent protein assay; type: functional, cell-based
[49] = test system: MDA-MB-231; test: Antitumor activity against human MDA-MB-231 cells xenografted in BALB/c-nu/nu mouse assessed as relative increment ratio at 1 mg/kg, ip measured for 24 days; type: functional; details: time 24 day
[50] = test system: MDA-MB-231; test: Antitumor activity against human MDA-MB-231 cells xenografted in BALB/c-nu/nu mouse assessed as tumor growth inhibition at 1 mg/kg, ip measured for 24 days; type: functional; details: MDA-MB-231, 576 h, time 24 day, read-out: TGI

SMILES: CCn1c2ccccc2c2cc(-c3nc(-c4ccc(N5CCN(C)CC5)cc4)c(-c4ccc(N5CCN(C)CC5)cc4)n3-c3ccc(OCCOCCOC4(C)O[C@H]5O[C@H](COC(C)=O)[C@@H](OC(C)=O)[C@H](OC(C)=O)[C@H]5O4)cc3)ccc21 (single isomer, unassigned)
- IC50 at 48 h [1]: 77.8 µM
- Kd [2]: > 20 µM
- Kd [3]: 13.9 µM
- Kd [4]: > 20 µM
- IC50 [5]: 15.9 µM
- IC50 [6]: 6.8 µM
- IC50 [7]: 2.9 µM
- IC50 [8]: 3.7 µM
- Kd [9]: 1.8 µM
- Kd [10]: > 20 µM
- ΔTm [11]: 22.1 °C
- Kd [12]: 12.7 µM
- Kd [13]: > 20 µM
- IC50 [14]: 3 µM
- Kd [15]: > 20 µM

SMILES: CCn1c2ccccc2c2cc(-c3nc(-c4ccc(N5CCN(C)CC5)cc4)c(-c4ccc(N5CCN(C)CC5)cc4)n3-c3ccc(OCCOCCOC4(C)O[C@H]5O[C@H](CO)[C@@H](O)[C@H](O)[C@H]5O4)cc3)ccc21 (single isomer, unassigned)
- Activity [16]: Active
- IC50 at 48 h [1]: > 100 µM
- Activity [17]: Active
- Kd [18]: 2.94 µM
- inhibition at 5 µM [19]: 20%
- IC50 [20]: 7 µM
- Activity [21]: Active
- inhibition at 5 µM [22]: 100%
- Kd [2]: > 20 µM
- Activity [23]: Non-Toxic
- Activity [24]: Active
- Activity [25]: Active
- Activity [26]: Active
- Kd [27]: 0.56 µM
- Activity [28]: Toxic
- Activity [29]: Active
- Activity [30]: Non-Toxic
- Kd [3]: > 20 µM
- Activity [31]: Active
- Kd [4]: > 20 µM
- IC50 [5]: 7 µM
- Activity [32]: Non-Toxic
- Activity [33]: Non-Toxic
- IC50 [6]: 2.3 µM
- IC50 [7]: 3.9 µM
- Activity [34]: Active
- Activity [35]: Non-Toxic
- inhibition [36]: Active
- inhibition [37]: Active
- Activity [38]: Toxic
- IC50 [8]: 0.16 µM
- Kd [9]: 3.8 µM
- Kd [10]: > 20 µM
- Activity [39]: 89.9%
- ΔTm [11]: 20.3 °C
- Kd [12]: 16.4 µM
- inhibition [40]: Active
- Activity [41]: Non-Toxic
- inhibition in vivo at 2.5 mg/kg [42]: 87.8%
- Kd [13]: > 20 µM
- IC50 [14]: 5 µM
- Activity [43]: Active
- Activity [44]: Non-Toxic
- Activity [45]: Active
- Kd [15]: > 20 µM
- Activity [46]: Active
- Activity [47]: Active
- Activity [48]: Active

SMILES: COc1cccc2c1C(=O)c1c(O)c3c(c(O)c1C2=O)C[C@@](O)(C(=O)CO)C[C@@H]3O[C@H]1C[C@H](N)[C@H](O)[C@H](C)O1 [DOXORUBICIN]
- Activity [49]: 85.4%
- inhibition in vivo at 1 mg/kg [50]: 80.2%
